Consider 5 compounds from ChEMBL document CHEMBL5465560, “Selectivity Literature for EUbOPEN Chemogenomic Library” (2024).

For assay [1], the target named is Serine/threonine-protein kinase 38 (Homo sapiens) (UniProt Q15208). The assay can be described thus: Selectivity interaction (Ambit KINOMEscan and KiNATiv profiling in Jurkat cells) EUB0000090b STK38. The assay is classed as cell-based. The note with it: at 1 µM.
The target in assay [2] is Phosphatidylinositol 4,5-bisphosphate 3-kinase catalytic subunit alpha isoform (Homo sapiens) (UniProt P42336). The assay is described as follows: (§1) Selectivity interaction (KinomeScan (DiscoverX)) EUB0000695a PIK3CA. The note with it: at 100 nM.
In assay [3] the test system is Phosphatidylinositol 4,5-bisphosphate 3-kinase catalytic subunit alpha isoform (Homo sapiens), P42336 [C420R]. Described as §1. The following applies: at 100 nM.
Sequence of Phosphatidylinositol 4,5-bisphosphate 3-kinase catalytic subunit alpha isoform (Homo sapiens), P42336 [C420R] (P42336 whole entry C420R, canonical isoform): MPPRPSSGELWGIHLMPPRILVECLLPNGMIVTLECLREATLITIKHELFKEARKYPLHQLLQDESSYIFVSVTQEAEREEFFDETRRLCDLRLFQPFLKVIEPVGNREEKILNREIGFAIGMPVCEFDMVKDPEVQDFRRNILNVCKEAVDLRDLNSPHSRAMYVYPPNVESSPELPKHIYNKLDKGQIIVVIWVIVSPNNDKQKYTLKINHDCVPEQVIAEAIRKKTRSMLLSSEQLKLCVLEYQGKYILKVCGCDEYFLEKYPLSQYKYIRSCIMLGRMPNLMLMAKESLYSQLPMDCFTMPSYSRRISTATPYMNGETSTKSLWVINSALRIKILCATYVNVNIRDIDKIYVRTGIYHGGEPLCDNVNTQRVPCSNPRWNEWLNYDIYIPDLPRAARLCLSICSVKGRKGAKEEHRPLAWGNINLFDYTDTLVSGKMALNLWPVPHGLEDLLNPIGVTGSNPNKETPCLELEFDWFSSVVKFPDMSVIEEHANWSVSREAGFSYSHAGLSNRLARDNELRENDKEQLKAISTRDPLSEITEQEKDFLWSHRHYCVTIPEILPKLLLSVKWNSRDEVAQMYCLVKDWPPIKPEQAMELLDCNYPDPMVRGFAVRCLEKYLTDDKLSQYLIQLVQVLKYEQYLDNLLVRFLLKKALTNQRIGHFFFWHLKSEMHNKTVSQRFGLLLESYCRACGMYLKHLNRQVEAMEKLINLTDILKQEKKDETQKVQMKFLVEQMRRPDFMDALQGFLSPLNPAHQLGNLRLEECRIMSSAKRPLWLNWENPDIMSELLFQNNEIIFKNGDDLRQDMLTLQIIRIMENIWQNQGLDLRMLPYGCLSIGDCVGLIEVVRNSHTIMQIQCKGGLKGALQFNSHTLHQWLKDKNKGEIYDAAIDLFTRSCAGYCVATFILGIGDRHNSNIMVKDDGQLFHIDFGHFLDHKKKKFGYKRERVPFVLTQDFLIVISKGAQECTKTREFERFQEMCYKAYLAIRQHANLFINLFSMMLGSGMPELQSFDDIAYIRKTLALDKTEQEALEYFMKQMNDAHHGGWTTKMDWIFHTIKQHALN
Assay [4] has as its system Phosphatidylinositol 4,5-bisphosphate 3-kinase catalytic subunit alpha isoform (Homo sapiens), P42336 [E542K]. The description is as §1. The following applies: at 100 nM.
In assay [5] the test system is Phosphatidylinositol 4,5-bisphosphate 3-kinase catalytic subunit alpha isoform (Homo sapiens), P42336 [E545A]. The assay is described as §1. The note with it: at 100 nM.
Assay [6] has as its system Phosphatidylinositol 4,5-bisphosphate 3-kinase catalytic subunit alpha isoform (Homo sapiens), P42336 [E545K]. Described as §1. The note with it: at 100 nM.
The subject of assay [7] is Phosphatidylinositol 4,5-bisphosphate 3-kinase catalytic subunit alpha isoform (Homo sapiens), P42336 [H1047L]. The assay is described as §1. The following applies: at 100 nM.
Assay [8] concerns Phosphatidylinositol 4,5-bisphosphate 3-kinase catalytic subunit alpha isoform (Homo sapiens), P42336 [H1047Y]. The assay is described as §1. The following applies: at 100 nM.
Sequence of Phosphatidylinositol 4,5-bisphosphate 3-kinase catalytic subunit alpha isoform (Homo sapiens), P42336 [H1047Y] (P42336 whole entry H1047Y, canonical isoform): as the sequence (P42336 whole entry C420R, canonical isoform) above, with R420C, H1047Y counted along it
Assay [9] relates to Phosphatidylinositol 4,5-bisphosphate 3-kinase catalytic subunit alpha isoform (Homo sapiens), P42336 [I800L]. The description is as §1. The note with it: at 100 nM.
Sequence of Phosphatidylinositol 4,5-bisphosphate 3-kinase catalytic subunit alpha isoform (Homo sapiens), P42336 [I800L] (P42336 whole entry I800L, canonical isoform): as the sequence (P42336 whole entry C420R, canonical isoform) above, with R420C, I800L counted along it
Assay [10] deals with Phosphatidylinositol 4,5-bisphosphate 3-kinase catalytic subunit alpha isoform (Homo sapiens), P42336 [M1043I]. The description is as §1. The note with it: at 100 nM.
Assay [11] has as its system Phosphatidylinositol 4,5-bisphosphate 3-kinase catalytic subunit alpha isoform (Homo sapiens), P42336 [Q546K]. The description is as §1. The following applies: at 100 nM.
The target in assay [12] is Serine/threonine-protein kinase pim-3 (Homo sapiens) (UniProt Q86V86). The assay can be described thus: Selectivity interaction (Kinase panel (Z-LYTE Assay)) EUB0001632a PIM3. The following applies: at 10 µM.
In assay [13] the target is Tyrosine-protein kinase ABL1 (Homo sapiens, UniProt P00519). The assay can be described thus: Selectivity interaction (ActivX KiNativ screen (kinase selectivity in THP-1 cell lysates)) EUB0000639a ABL1. The following applies: lysate, at 0.2 µM. The assay is classed as subcellular.
Assay [14] deals with T1, Ephrin type-B receptor 4 (Homo sapiens) (UniProt P54760).
T1 sequence (whole entry): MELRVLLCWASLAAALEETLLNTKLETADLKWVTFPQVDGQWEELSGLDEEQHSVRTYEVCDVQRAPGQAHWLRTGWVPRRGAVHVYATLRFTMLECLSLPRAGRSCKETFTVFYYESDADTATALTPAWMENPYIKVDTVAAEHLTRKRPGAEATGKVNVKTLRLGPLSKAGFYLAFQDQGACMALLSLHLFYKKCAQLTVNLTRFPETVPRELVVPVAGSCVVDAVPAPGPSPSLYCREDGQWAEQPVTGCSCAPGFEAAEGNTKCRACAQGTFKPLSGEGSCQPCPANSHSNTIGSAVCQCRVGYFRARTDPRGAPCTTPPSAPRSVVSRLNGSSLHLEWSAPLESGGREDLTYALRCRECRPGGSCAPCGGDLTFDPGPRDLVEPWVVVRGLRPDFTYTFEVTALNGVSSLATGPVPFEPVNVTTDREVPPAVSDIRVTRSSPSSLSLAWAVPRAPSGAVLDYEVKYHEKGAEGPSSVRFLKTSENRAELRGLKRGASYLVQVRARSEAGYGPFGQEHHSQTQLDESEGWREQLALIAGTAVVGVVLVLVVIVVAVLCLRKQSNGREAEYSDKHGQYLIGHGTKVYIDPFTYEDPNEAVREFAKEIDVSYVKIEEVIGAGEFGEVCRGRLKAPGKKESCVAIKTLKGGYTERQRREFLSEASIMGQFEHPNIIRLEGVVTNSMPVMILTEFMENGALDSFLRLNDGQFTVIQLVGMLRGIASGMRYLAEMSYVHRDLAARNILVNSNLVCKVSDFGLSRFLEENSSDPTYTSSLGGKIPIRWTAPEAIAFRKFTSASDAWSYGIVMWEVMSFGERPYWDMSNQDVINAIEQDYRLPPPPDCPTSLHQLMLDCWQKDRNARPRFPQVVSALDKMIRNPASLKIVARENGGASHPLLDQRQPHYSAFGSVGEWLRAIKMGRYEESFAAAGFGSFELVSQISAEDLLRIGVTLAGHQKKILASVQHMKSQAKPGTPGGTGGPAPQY
The assay can be described thus: Selectivity interaction (Kinase panel (Invitrogen)) EUB0000639a EPHB4. The note with it: at 200 nM.

The target of assay [15] is RAC-alpha serine/threonine-protein kinase (Homo sapiens, UniProt P31749). The assay is described as follows: Selectivity interaction (KinomeScan (DiscoverX)) EUB0000595a AKT1. The note with it: at 10 µM.
Sequence of RAC-alpha serine/threonine-protein kinase (P31749 whole entry): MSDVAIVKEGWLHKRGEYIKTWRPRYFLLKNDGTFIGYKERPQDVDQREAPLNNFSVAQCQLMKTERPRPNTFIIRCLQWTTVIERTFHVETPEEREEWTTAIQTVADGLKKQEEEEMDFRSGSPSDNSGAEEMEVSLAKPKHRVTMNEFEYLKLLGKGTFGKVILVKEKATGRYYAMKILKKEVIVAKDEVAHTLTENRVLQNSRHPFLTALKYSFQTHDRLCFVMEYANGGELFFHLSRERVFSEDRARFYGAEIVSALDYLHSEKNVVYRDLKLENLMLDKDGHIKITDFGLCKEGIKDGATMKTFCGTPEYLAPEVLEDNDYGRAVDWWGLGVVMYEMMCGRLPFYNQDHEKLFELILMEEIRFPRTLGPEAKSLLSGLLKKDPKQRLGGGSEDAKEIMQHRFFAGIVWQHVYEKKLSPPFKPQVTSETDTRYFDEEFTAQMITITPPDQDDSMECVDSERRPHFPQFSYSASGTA

Each structure is given as a SMILES string.

Sequence of Serine/threonine-protein kinase 38 (Homo sapiens) (Q15208 2-465 limits assumed): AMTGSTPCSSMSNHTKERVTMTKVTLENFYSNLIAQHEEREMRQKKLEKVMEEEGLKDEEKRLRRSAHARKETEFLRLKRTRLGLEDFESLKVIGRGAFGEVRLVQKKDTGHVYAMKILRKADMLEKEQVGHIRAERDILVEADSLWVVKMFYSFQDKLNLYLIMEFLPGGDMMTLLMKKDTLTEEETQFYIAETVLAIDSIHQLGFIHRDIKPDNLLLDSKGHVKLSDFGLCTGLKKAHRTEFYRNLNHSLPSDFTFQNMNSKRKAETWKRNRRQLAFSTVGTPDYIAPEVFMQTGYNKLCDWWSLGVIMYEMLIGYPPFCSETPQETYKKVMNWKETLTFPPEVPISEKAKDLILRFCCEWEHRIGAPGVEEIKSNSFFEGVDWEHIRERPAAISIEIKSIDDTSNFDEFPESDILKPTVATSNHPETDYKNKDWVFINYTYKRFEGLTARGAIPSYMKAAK

`CN(C)C/C=C/C(=O)Nc1ccc(C(=O)N2CCCC(Nc3ncc(Cl)c(-c4c[nH]c5ccccc45)n3)C2)cc1` (stereo not given): the % of control in [1] was found to be 100%.

As to `Cc1cc(F)c(C(=O)Nc2cccc(-c3nncn3C(C)C)n2)cc1-n1cnc(C2CC2)c1`, the % of control in [2] came to 100%; in assay [3] it was 100%; in assay [4], 100%; in assay [5], 100%; in assay [6] it was 99%; in assay [7], 100%. In addition, the % of control in [8] is 100%; in assay [9] it was 89%; in assay [10], 93%; in assay [11], 100%.

For `Cn1cc(-n2cnc3c(NCc4nc5cc(Cl)c(Cl)cc5[nH]4)nc(N4CCOCC4)nc32)cn1`, in assay [12], the % of control is -7.71%.

`CC[C@@H]1[C@H](F)C(=O)N[C@@H]1COc1nccc2cc(C(N)=O)c(OC)cc12` [ZIMLOVISERTIB]: the % of inhibition is -42.6% in assay [13] and 4.33% in assay [14].

As to `COCC(=O)NC/C=C/c1ccc2ncnc(Nc3ccc(Oc4ccc(C)nc4)c(C)c3)c2c1` [CP-724714], the % of control in [15] came out at 100%.
